4 compounds from article PMC6851324, “Design and development of stapled transmembrane peptides that disrupt the activity of G-protein–coupled receptor oligomers” (The Journal of Biological Chemistry, 2019) can be followed below.

Data set [1] is described as follows: CD helicity measurements. It is filed as physicochemical. The note with it: 30–50 μM peptide in MilliQ water, 20 °C, 1-mm path length, three scans 195–260 nm, % helicity from molar ellipticity at 222 nm. As to the method: Figure 4. Biophysical analysis of stapled peptides. A, amino acid sequence alignment of the targeted TM regions and disrupting peptides. Cys residues are in the reduced state. Blue bridges indicate the stapled amino acid residues. […] Yields, purity, and MALDI-TOF data are shown for the stapled peptides and negative control. B, CD analysis of 30–50 μM peptides at 20 °C. For proteolytic stability studies, the peptide solution (55.5 μM for trypsin and chymotrypsin and 11.1 μM for serum) was incubated in the presence of 0.55 μg/ml trypsin from porcine pancreas (E), α-chymotrypsin (F), or mouse serum (G) at 37 °C for the indicated times (indicated on the x axis). Data are mean ± S.E. (error bars) (n = 3) percentage of intact peptide normalized to t = 0. Proteolytic half-lives and putative cleavage sites (predicted using the Expasy bioinformatics server's model with a 50% probability of cleavage) are indicated at the bottom of each panel. Positive correlation between helicity and half-life in trypsin/chymotrypsin (C) or serum (D) was determined by two-tailed Pearson's correlation test. […]
CD spectra were recorded on a Jasco J-810 with a total of three scans from 195 to 260 nm in 0.5-nm increments. […]
The Jasco J-810 generates the raw output in ellipticity and is measured in millidegrees. […] Once the precise concentration was confirmed, the molar ellipticity [θ] was calculated as follows. […]
Where c is the sample concentration (μM), l is the path length (mm), n is the number of peptide bonds (calculated as amino acid residues − 1), and θobs is the observed ellipticity (millidegrees). […]

In data set [2] the target is T1, α-chymotrypsin from bovine pancreas (Bos taurus, UniProt P00766, DEL14-15/DEL147-148).
T1 construct: purchased Sigma Type II; host or cells: bovine pancreas
Kind of data set: Proteolytic stability against chymotrypsin. The note with it: cattle. Format: in vitro ADME. As to the method:
(§1) Figure 4. Biophysical analysis of stapled peptides. A, amino acid sequence alignment of the targeted TM regions and disrupting peptides. Cys residues are in the reduced state. Blue bridges indicate the stapled amino acid residues. […] Yields, purity, and MALDI-TOF data are shown for the stapled peptides and negative control. B, CD analysis of 30–50 μM peptides at 20 °C. For proteolytic stability studies, the peptide solution (55.5 μM for trypsin and chymotrypsin and 11.1 μM for serum) was incubated in the presence of 0.55 μg/ml trypsin from porcine pancreas (E), α-chymotrypsin (F), or mouse serum (G) at 37 °C for the indicated times (indicated on the x axis). Data are mean ± S.E. (error bars) (n = 3) percentage of intact peptide normalized to t = 0. Proteolytic half-lives and putative cleavage sites (predicted using the Expasy bioinformatics server's model with a 50% probability of cleavage) are indicated at the bottom of each panel. Positive correlation between helicity and half-life in trypsin/chymotrypsin (C) or serum (D) was determined by two-tailed Pearson's correlation test. TEXT PRINTED IN THE PICTURE: (B) TM7-TAT: Ellipticity (%): 3.4 | (B) TM6-TAT: Ellipticity (%): 18.3 | (B) TM5-TAT: Ellipticity (%): 20.9 | (B) 8: Ellipticity (%): 58.3 | (B) 9: Ellipticity (%): 46.4 | (B) 10: Ellipticity (%): 36.8 | (B) 11: Ellipticity (%): 46 | (E) TM7-TAT: Half-life (min): 21; #Cleavage sites: 8 | (E) TM6-TAT: Half-life (min): 40; #Cleavage sites: 7 | (E) TM5-TAT: Half-life (min): 33; #Cleavage sites: 8 | (E) 8: Half-life (min): 307; #Cleavage sites: 0 | (E) 9: Half-life (min): 178; #Cleavage sites: 0 | (E) 10: Half-life (min): 75; #Cleavage sites: 6 | (E) 11: Half-life (min): 84; #Cleavage sites: 0 | (F) TM7-TAT: Half-life (min): 22; #Cleavage sites: 6 | (F) TM6-TAT: Half-life (min): 32; #Cleavage sites: 7 | (F) TM5-TAT: Half-life (min): 28; #Cleavage sites: 7 | (F) 8: Half-life (min): 425; #Cleavage sites: 4 | (F) 9: Half-life (min): 198; #Cleavage sites: 3 | (F) 10: Half-life (min): 63; #Cleavage sites: 2 | (F) 11: Half-life (min): 79; #Cleavage sites: 4 | (G) TM7-TAT: Half-life (hours): 0.46 | (G) TM6-TAT: Half-life (hours): 0.55 | (G) TM5-TAT: Half-life (hours): 0.81 | (G) 8: Half-life (hours): ≥18 | (G) 9: Half-life (hours): 14.7 | (G) 10: Half-life (hours): 11.7 | (G) 11: Half-life (hours): 5.3 DOUBTS OF THE COPYIST ABOUT THIS PICTURE: Panel A table (Yield, Rt, Purity, [M+H+] calc., [M+H+] Peak Found for 7-11) left out as synthesis and mass-spectrum characterisation data; uncertain whether [M+H+] calc. should count as a molecular weight
(§2) Dose–response curves were fitted using a four-parameter logistic nonlinear regression mode. Peptide stability data were fitted using a nonlinear regression mode for dissociation kinetics. All statistical tests, curve fitting, and graphing were performed using GraphPad Prism 8 (GraphPad Software, La Jolla, CA).
To 100 μl of peptide solution (100 μM, dissolved in ammonium bicarbonate buffer, pH 7.5), 60 μl of ammonium bicarbonate buffer (pH 7.5) was added, together with 20 μl of temperature-equilibrated (37 ± 1 °C) α-chymotrypsin (5 μg/ml) from bovine pancreas (Sigma, Type II, activity > 40 units/mg protein). Peptides were incubated for 15, 30, 60, 120, 240, and 480 min, and then MeOH (HPLC grade) + 0.05% TFA was added. The samples were then centrifuged (15,000 rpm), and supernatant was analyzed in a similar manner as described above. The experiment was repeated twice on different days.

Data set [3] in a line: Stability in mouse serum. Format: in vitro ADME. The note with it: 11.1 μM peptide, fresh nonsterile mouse serum (200 μl serum + 25 μl peptide solution, pH 7.5 buffer with 10% DMSO), 37 °C, quench 15% TCA in acetonitrile, HPLC, n = 3; read-out: Half-life (hours), mouse serum (converted). As to the method:
as §1, §2
To 200 μl of fresh nonsterile mouse serum was added 25 μl of peptide solution (100 μM, dissolved in ammonium bicarbonate buffer, pH 7.5, containing 10% DMSO), and the mixture was incubated at 37 °C. At the specified time, an aliquot of incubation mixture was withdrawn and quenched by the addition of an equal volume of 15% TCA in acetonitrile to precipitate out serum proteins over ice for 30 min. The mixture was then centrifuged at 13,500 rpm for 10 min, and the supernatant was collected and analyzed by HPLC in a similar manner as described previously. The experiment was repeated twice on different days.

Where [4] appears, read: isolated enzyme chymotrypsin, 55.5 μM peptide, 0.55 μg/ml α-chymotrypsin from bovine pancreas, ammonium bicarbonate buffer pH 7.5, 37 °C, 15–480 min, intact peptide by RP-HPLC, n = 3, nonlinear regression fit, read-out: Half-life (min), α-chymotrypsin.

Where two headings read alike, the source gives them in different places. Where a SMILES comes first, the peptide text is derived from it. Bridges are numbered along the chain shown (N, C = ends). Where no end group is shown, it is not given here. [ ]: non-standard residue; d: D form. S5 = C=CCCC[C@](C)(N)C(=O)O; Nle = CCCC[C@H](N)C(=O)O Bounds are passed on as bounds.

Turning to `CCCC[C@H](NC(=O)[C@]1(C)CCC/C=C\CCC[C@](C)(NC(=O)[C@H](Cc2ccccc2)NC(=O)[C@H](CC(C)C)NC(=O)[C@H](CC(C)C)NC(=O)[C@H](CC(C)C)NC(=O)[C@@H](N)C(C)C)C(=O)N[C@@H](C(C)C)C(=O)N[C@@H](Cc2ccc(O)cc2)C(=O)N[C@@H](C)C(=O)N1)C(=O)N[C@@H](Cc1ccc(O)cc1)C(=O)N[C@H](C(=O)N[C@@H](CC(C)C)C(=O)N[C@@H](Cc1c[nH]c2ccccc12)C(N)=O)[C@@H](C)CC` [Peptide 8] (H-VLLLF[S5]VYA[S5][Nle]YILW-NH2; staple (Z) 6-10), the “Ellipticity (%) (helicity by CD)” value in data set [1] worked out at 58.3%. Moreover, the half-life at 55.5 μM in data set [2] (55.5 μM peptide, 0.55 μg/ml α-chymotrypsin from bovine pancreas, ammonium bicarbonate buffer pH 7.5, 37 °C, 15–480 min, intact peptide by RP-HPLC, n = 3, nonlinear regression fit, read-out: Half-life (min), α-chymotrypsin) came to 425 min. In addition, the half-life at 11.1 μM in data set [3] was no less than 18 h.
On to `C=CCCC[C@](C)(NC(=O)[C@H](Cc1ccc(O)cc1)NC(=O)[C@@H](N)C(C)C)C(=O)N[C@@H](Cc1ccc(O)cc1)C(=O)N[C@@H](CCCC)C(=O)N[C@@](C)(CCCC=C)C(=O)N[C@H](C(=O)N[C@@H](CC(C)C)C(=O)N[C@@H](Cc1c[nH]c2ccccc12)C(N)=O)[C@@H](C)CC` [Peptide 11] (H-VY[S5]Y[Nle][S5]ILW-NH2), for which the “Ellipticity (%) (helicity by CD)” value in data set [1] was found to be 46.0%. In data set [2] (isolated enzyme chymotrypsin, pH 7.5), this compound returned a half-life at 55.5 μM of 79 min.
For the compound “ETYLMFWIGVTSVLLLFIVYAYMYILWGRKKRRQRRR [TM5-TAT, reference compound]”, the “Ellipticity (%) (helicity by CD)” value in data set [1] (listed as CB1 TM5-TAT) is on record as less than 20%. Besides, in data set [2] (setting [4]), the half-life at 55.5 μM came out at 28 min. The half-life at 11.1 μM in data set [3] was 0.81 h.
Consider “GRKKRRQRRRKTLVLILVVLIICWGPLLAIMVY [TM6-TAT, reference compound]”, for which the “Ellipticity (%) (helicity by CD)” value in data set [1] is less than 20%. In addition, the half-life at 55.5 μM in data set [2] (setting [4]) came out at 32 min. Moreover, the half-life at 11.1 μM in data set [3] is 0.55 h.

What is called half-life is the time needed for the level to fall by half in the phase considered.
